SMILES strings stand for the structures.

The values below come from ChEMBL document CHEMBL1126431, “The effect of N-acyl substituents on the stability of monocyclic -lactam inhibitors of human leukocyte elastase” (Bioorg Med Chem Lett, 1992).

Series [1] is described as follows: Half-life period was determined, by hydrolyzing under mild conditions (pH = 8.0, 25 degrees Celsius). In kind it is ADME.
Another series concerns the target T1, Neutrophil elastase (Homo sapiens, UniProt P08246).
T1 sequence (P08246 whole entry): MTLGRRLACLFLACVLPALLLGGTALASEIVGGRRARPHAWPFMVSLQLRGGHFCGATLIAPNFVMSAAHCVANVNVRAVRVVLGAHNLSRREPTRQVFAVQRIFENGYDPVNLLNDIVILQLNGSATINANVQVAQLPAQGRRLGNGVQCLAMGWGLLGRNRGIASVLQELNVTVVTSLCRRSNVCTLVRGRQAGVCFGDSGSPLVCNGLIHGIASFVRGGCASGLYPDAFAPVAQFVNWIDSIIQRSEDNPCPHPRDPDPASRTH
Description: Concentration required for inhibition of human leukocyte elastase (HLE).

The target of series [2] is T2, Neutrophil elastase (Homo sapiens) (UniProt P08246).
T2 sequence (whole entry): T1 sequence (P08246 whole entry)
Description: Human leukocyte elastase (HLE) inhibitory activity is reported as kinetic constant (kobs/[I] - time dependent inhibition).

`CC[C@@H]1C(=O)N(C(C)=O)[C@H]1OC(C)=O` (racemic) showed a half-life in series [1] of about 2 h. `CC[C@@H]1C(=O)N(C(=O)NC)[C@H]1Oc1ccc(C(=O)O)cc1` returned a Ki on Neutrophil elastase of 16.5 µM.

Take `CCOC(=O)N1C(=O)[C@@H](CC)[C@@H]1Oc1ccc(C(=O)O)cc1`: the k obs / 1 in series [2] amounted to 6350 M⁻¹ s⁻¹. In series [2], `CC[C@@H]1C(=O)N(C(=O)NCc2ccccc2)[C@H]1Oc1ccc(C(=O)O)cc1` displayed a k obs / 1 of 2480 M⁻¹ s⁻¹. `CC[C@@H]1C(=O)N(C(C)=O)[C@H]1Oc1ccc(C(=O)O)cc1`: the half-life in series [1] was about 9 h. In addition, the k obs / 1 in series [2] is 6680 M⁻¹ s⁻¹. On to `CC[C@@H]1C(=O)N[C@H]1Oc1ccc(C(=O)O)cc1`, for which, in series [1], the half-life is about 32 h. Moreover, affinity on Neutrophil elastase was put at a Ki of 290 µM.

As a reminder, the half-life is the time needed for the level to fall by half in the phase considered. Higher therefore signals slow decline. In general, Ki refers to the dissociation constant of the complex between target and ligand, obtained from inhibition or displacement. Lower therefore signals higher affinity.
